Assay results: PubChem BioAssay AID330 (DTP/NCI, 2004)
Values joined by “and” are separate entries in the source; they are usually repeats but may differ in a detail not shown here. Identical values can stand only once. Toxic doses and inconclusive results are not listed.

Tested on: P388 leukemia ip, CD2F1 mice, survival T/C
Experiment: NCI In Vivo Anticancer Drug Screen. Data for tumor model P388 Leukemia (intraperitoneal) in CD2F1 (CDF1) mice
Details: endpoint: median survival time, higher = longer survival
Summary of the method: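 Mice carrying the transplanted tumor received test compound or vehicle. Survival was recorded in each group, and the value is the treated-group measurement divided by that of the vehicle-treated control group.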

[1] = dose: 50.0 mg/kg/injection, schedule: Q01DX005 (ip), vehicle: Klucel (hydroxypropylcellulose) (HPC)
[2] = dose: 100.0 mg/kg/injection, schedule: Q01DX005 (ip), vehicle: Klucel (hydroxypropylcellulose) (HPC)
[3] = dose: 200.0 mg/kg/injection, schedule: Q01DX005 (ip), vehicle: Klucel (hydroxypropylcellulose) (HPC)
[4] = dose: 50.0 mg/kg/injection, schedule: Q01DX005 (ip), vehicle: saline with Tween-80
[5] = dose: 100.0 mg/kg/injection, schedule: Q01DX005 (ip), vehicle: saline with Tween-80
[6] = dose: 200.0 mg/kg/injection, schedule: Q01DX005 (ip), vehicle: saline with Tween-80
[7] = dose: 12.5 mg/kg/injection, schedule: Q01DX009 (ip), vehicle: saline
[8] = dose: 25.0 mg/kg/injection, schedule: Q01DX009 (ip), vehicle: saline
[9] = dose: 50.0 mg/kg/injection, schedule: Q01DX009 (ip), vehicle: saline with Tween-80
[10] = dose: 100.0 mg/kg/injection, schedule: Q01DX009 (ip), vehicle: saline with Tween-80
[11] = dose: 200.0 mg/kg/injection, schedule: Q01DX009 (ip), vehicle: saline with Tween-80
[12] = dose: 12.5 mg/kg/injection, schedule: Q01DX005 (ip), vehicle: Klucel (hydroxypropylcellulose) (HPC)
[13] = dose: 50.0 mg/kg/injection, schedule: Q01DX009 (ip), vehicle: saline

With Nc1cccc2c1C(=O)c1ccccc1C2=O the T/C (dose: 50.0 mg/kg/injection, schedule: Q04DX003 (ip), vehicle: Klucel (hydroxypropylcellulose) (HPC)) was 100 % of control, the T/C (dose: 100.0 mg/kg/injection, schedule: Q04DX003 (ip), vehicle: Klucel (hydroxypropylcellulose) (HPC)) was 101 % of control and the T/C (dose: 200.0 mg/kg/injection, schedule: Q04DX003 (ip), vehicle: Klucel (hydroxypropylcellulose) (HPC)) was 91 % of control. The T/C (dose: 400.0 mg/kg/injection, schedule: Q04DX003 (ip), vehicle: Klucel (hydroxypropylcellulose) (HPC)) was 92 % of control.

With CC(=O)NC1=CC(=O)c2[nH]c(=O)[nH]c(=O)c2C1=O the T/C (dose: 3.0 mg/kg/injection, schedule: Q01DX005 (ip), vehicle: other) was 99 % of control, the T/C (dose: 6.0 mg/kg/injection, schedule: Q01DX005 (ip), vehicle: other) was 98 % of control and the T/C (dose: 12.0 mg/kg/injection, schedule: Q01DX005 (ip), vehicle: other) was 100 % of control.

For Nc1nc(-c2ccccc2)nc2sc3c(c12)CCCC3, the T/C [1] was 104 % of control, the T/C [2] was 106 % of control and the T/C [3] was 103 % of control.

Cc1cccc(NC(=S)NNc2nnc(-c3ccccc3)c(-c3ccccc3)n2)c1 was tested, and the T/C [4] was 90 % of control, the T/C [5] was 99 % of control and the T/C [6] was 100 % of control.

In the case of COc1cc(/C=N/NC(=O)CNC(=O)c2ccccc2)ccc1O, the T/C (dose: 60.0 mg/kg/injection, schedule: Q01DX005 (ip), vehicle: saline with Tween-80) is reported as 93 % of control, the T/C (dose: 120.0 mg/kg/injection, schedule: Q01DX005 (ip), vehicle: saline with Tween-80) is reported as 95 % of control and the T/C (dose: 240.0 mg/kg/injection, schedule: Q01DX005 (ip), vehicle: saline with Tween-80) is reported as 94 % of control.

For COC(=O)C/C(=C/C=C1/C(=O)ON=C1C)c1c(C)[nH]oc1=O, the T/C (dose: 100.0 mg/kg/injection, schedule: Q04DX003 (ip), vehicle: saline) was 100 % of control, the T/C (dose: 200.0 mg/kg/injection, schedule: Q04DX003 (ip), vehicle: saline) was 100 % of control and the T/C (dose: 400.0 mg/kg/injection, schedule: Q04DX003 (ip), vehicle: saline) was 100 % of control.

CC(C)(C)C(=O)Oc1ccc(Br)cc1 was tested, and the T/C (dose: 100.0 mg/kg/injection, schedule: Q01DX001 (ip), vehicle: Klucel (hydroxypropylcellulose) (HPC)) was 106 % of control, the T/C (dose: 200.0 mg/kg/injection, schedule: Q01DX001 (ip), vehicle: Klucel (hydroxypropylcellulose) (HPC)) was 106 % of control and the T/C (dose: 400.0 mg/kg/injection, schedule: Q01DX001 (ip), vehicle: Klucel (hydroxypropylcellulose) (HPC)) was 108 % of control.

In the case of O=C1NC(=O)/C(=C\c2ccco2)S1, the T/C (dose: 6.25 mg/kg/injection, schedule: Q01DX009 (ip), vehicle: Klucel (hydroxypropylcellulose) (HPC)) is reported as 98 % of control, the T/C (dose: 12.5 mg/kg/injection, schedule: Q01DX009 (ip), vehicle: Klucel (hydroxypropylcellulose) (HPC)) is reported as 89 % of control and the T/C (dose: 25.0 mg/kg/injection, schedule: Q01DX009 (ip), vehicle: Klucel (hydroxypropylcellulose) (HPC)) is reported as 94 % of control.

CC(=O)c1cccc(OC(=O)Nc2ccccc2)c1 was tested, and the T/C [4] was 96 % of control, the T/C [5] was 90 % of control and the T/C [6] was 98 % of control.

With NC(CC1C(=O)Nc2ccccc21)C(=O)O (stereo not given) the T/C [4] was 104 % of control, the T/C [5] was 103 % of control and the T/C [6] was 103 % of control.

With C=CCOc1cc2c(cc1C(C)c1ccc(OC)c(OC)c1)OCO2 (stereo not given) the T/C [4] was 99 % of control, the T/C [5] was 100 % of control and the T/C [6] was 95 % of control.

CN(C)c1ccc(C2(c3ccccc3)c3ccccc3C(=O)N2N)cc1 (stereo not given) was tested, and the T/C (dose: 100.0 mg/kg/injection, schedule: Q04DX002 (ip), vehicle: saline with Tween-80) was 89 % of control, the T/C (dose: 200.0 mg/kg/injection, schedule: Q04DX002 (ip), vehicle: saline with Tween-80) was 89 % of control and the T/C (dose: 400.0 mg/kg/injection, schedule: Q04DX002 (ip), vehicle: saline with Tween-80) was 90 % of control.

With COc1ccc(C(=O)c2cc3c(ccc4ccccc43)oc2=O)cc1 the T/C (dose: 6.25 mg/kg/injection, schedule: Q01DX009 (ip), vehicle: saline) was 98 % of control, the T/C [7] was 96 % of control and the T/C [8] was 90 % of control.

O=C(O)c1cc2ccccc2c2c1C(=O)c1ccccc1-2 was tested, and the T/C [9] was 90 % of control, the T/C [10] was 95 % of control and the T/C [11] was 91 % of control.

With CCCCNCCC1(CCC(C)C)C(=O)NC(=O)NC1=O the T/C [1] was 96 % of control, the T/C [2] was 105 % of control and the T/C [3] was 101 % of control.

In the case of CC1(C)CCC[C@]2(C)[C@@H](C=O)C(C=O)=CC[C@@H]12, the T/C (dose: 3.12 mg/kg/injection, schedule: Q01DX005 (ip), vehicle: Klucel (hydroxypropylcellulose) (HPC)) is reported as 102 % of control, the T/C (dose: 6.25 mg/kg/injection, schedule: Q01DX005 (ip), vehicle: Klucel (hydroxypropylcellulose) (HPC)) is reported as 103 % of control and the T/C [12] is reported as 106 % of control.

For CCCN(CCC)CC(=O)Nc1c(Cl)cccc1Cl, the T/C [8] was 100 % of control, the T/C [13] was 110 % of control and the T/C (dose: 100.0 mg/kg/injection, schedule: Q01DX009 (ip), vehicle: saline) was 105 % of control.

COc1ccc2c3c([nH]c2c1)C(C)N(S(=O)(=O)c1ccccc1)CC3 (stereo not given) was tested, and the T/C [12] was 98 % of control, the T/C (dose: 25.0 mg/kg/injection, schedule: Q01DX005 (ip), vehicle: Klucel (hydroxypropylcellulose) (HPC)) was 92 % of control and the T/C [1] was 98 % of control. The T/C [2] was 98 % of control and the T/C [3] was 93 % of control.

With CCCCCCCCCCCCCCCC(=O)N(CC#CCN(C(=O)CCCCCCCCCCCCCCC)C(C)CCCN(CC)CC)C(C)CCCN(CC)CC (stereo not given) the T/C (dose: 25.0 mg/kg/injection, schedule: Q01DX009 (ip), vehicle: other) was 97 % of control and the T/C (dose: 50.0 mg/kg/injection, schedule: Q01DX009 (ip), vehicle: other) was 101 % of control.

With COC(COC(=O)N1CCN(C=O)CC1)C1=C(N2CC2)C(=O)C(C)=C(N2CC2)C1=O (stereo not given) the T/C (dose: 3.13 mg/kg/injection, schedule: Q01DX005 (ip), vehicle: saline) was 177 % of control.

CC1(C)C/C(=C2\COC(=O)C2=O)NN1c1ccccc1 was tested, and the T/C [9] was 106 % of control, the T/C [10] was 99 % of control and the T/C [11] was 105 % of control.

CCN(CC)C(C)COC(=O)c1ccc(N)cc1 (stereo not given) was tested, and the T/C [7] was 86 % of control, the T/C (dose: 12.5 mg/kg/injection, schedule: Q04DX003 (ip), vehicle: saline) was 95 % of control and the T/C (dose: 25.0 mg/kg/injection, schedule: Q04DX003 (ip), vehicle: saline) was 91 % of control. The T/C [13] was 100 % of control and the T/C (dose: 50.0 mg/kg/injection, schedule: Q04DX003 (ip), vehicle: saline) was 91 % of control.

In the case of COc1ccc(-c2nn(CCO)c(=O)c(C#N)c2-c2ccc(OC)cc2)cc1, the T/C (dose: 25.0 mg/kg/injection, schedule: Q04DX002 (ip), vehicle: distilled water + Tween-80) is reported as 101 % of control, the T/C (dose: 50.0 mg/kg/injection, schedule: Q04DX002 (ip), vehicle: distilled water + Tween-80) is reported as 98 % of control and the T/C (dose: 100.0 mg/kg/injection, schedule: Q04DX002 (ip), vehicle: distilled water + Tween-80) is reported as 103 % of control. For the same molecule, the T/C (dose: 200.0 mg/kg/injection, schedule: Q04DX002 (ip), vehicle: distilled water + Tween-80) was 89 % of control.

COC1=C(C)C(=O)C2=C(C1=O)C(CO)N1C(C#N)C3CC4C(C1C2N1CCOC41)N3C (stereo not given) was tested, and the T/C (dose: 0.15 mg/kg/injection, schedule: Q01DX005 (ip), vehicle: acid diluted with saline) was 111 % of control and 117 % of control, the T/C (dose: 0.3 mg/kg/injection, schedule: Q01DX005 (ip), vehicle: acid diluted with saline) was 113 % of control and the T/C (dose: 0.4 mg/kg/injection, schedule: Q01DX005 (ip), vehicle: saline + alcohol) was 152 % of control. The T/C (dose: 0.6 mg/kg/injection, schedule: Q01DX005 (ip), vehicle: acid diluted with saline) was 123 % of control and the T/C (dose: 0.8 mg/kg/injection, schedule: Q01DX005 (ip), vehicle: saline + alcohol) was 154 % of control.

For Cc1ccc(NC(=O)COc2ccc(Cl)cc2Cl)c(C)c1, the T/C (dose: 100.0 mg/kg/injection, schedule: Q04DX003 (ip), vehicle: saline with Tween-80) was 104 % of control, the T/C (dose: 200.0 mg/kg/injection, schedule: Q04DX003 (ip), vehicle: saline with Tween-80) was 95 % of control and the T/C (dose: 400.0 mg/kg/injection, schedule: Q04DX003 (ip), vehicle: saline with Tween-80) was 90 % of control.
